According to patent US7138361B2, “Herbicidal heterocycles” (E. I. du Pont de Nemours and Company, priority 2000, dated 2006):

Tests used:
Assay type in all cases: in vivo
[1] = system: Sunflower; test: Test C preemergence; conditions: Rate 250 g/ha, scale 0 to 100, 0 no effect, 100 complete control
[2] = system: Surinam grass (Brachiaria decumbens); test: Test B preemergence
Method in brief: (§1)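 Visual injury scores, 0 = no effect to 100 = complete control, assigned against controls after 13 to 15 days in the greenhouse. Compounds formulated in non-phytotoxic solvent plus surfactant and applied to soil after planting (pre) or onto foliage of 1- to 4-leaf plants (post).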

[3] = system: crabgrass (Digitaria sanguinalis); test: Test B preemergence
Method in brief: as §1

[4] = system: corn (Zea mays); test: Test B preemergence
Method in brief: as §1

[5] = system: morning glory (Ipomoea hederacea); test: Test B preemergence
Method in brief: as §1

[6] = system: rice (Oryza saliva); test: Test B preemergence
Method in brief: as §1

[7] = system: giant foxtail (Setaria faberii); test: Test B preemergence
Method in brief: as §1

[8] = system: cocklebur (Xanthium strumarium); test: Test B preemergence
Method in brief: as §1

[9] = system: barnyardgrass (Echinochloa crus-galli); test: Test B preemergence
Method in brief: as §1

[10] = system: velvetleaf (Abutilon theophrasti); test: Test B preemergence
Method in brief: as §1

[11] = system: lambsquarters (Chenopodium album); test: Test B preemergence
Method in brief: as §1

[12] = system: pigweed (Amaranthus retroflexus); test: Test B preemergence
Method in brief: as §1

[13] = system: Surinam grass (Brachiaria decumbens); test: Test B postemergence; conditions: 13 to 15 days
Method in brief: as §1

[14] = system: crabgrass (Digitaria sanguinalis); test: Test B postemergence; conditions: 13 to 15 days
Method in brief: as §1

[15] = system: blackgrass (Alopecurus myosuroides); test: Test B postemergence; conditions: 13 to 15 days
Method in brief: as §1

[16] = system: wheat (Triticum aestivum); test: Test B postemergence; conditions: 13 to 15 days
Method in brief: as §1

[17] = system: corn (Zea mays); test: Test B postemergence; conditions: 13 to 15 days
Method in brief: as §1

[18] = system: morning glory (Ipomoea hederacea); test: Test B postemergence; conditions: 13 to 15 days
Method in brief: as §1

[19] = system: giant foxtail (Setaria faberii); test: Test B postemergence; conditions: 13 to 15 days
Method in brief: as §1

[20] = system: cocklebur (Xanthium strumarium); test: Test B postemergence; conditions: 13 to 15 days
Method in brief: as §1

[21] = system: barnyardgrass (Echinochloa crus-galli); test: Test B postemergence; conditions: 13 to 15 days
Method in brief: as §1

[22] = system: velvetleaf (Abutilon theophrasti); test: Test B postemergence; conditions: 13 to 15 days
Method in brief: as §1

[23] = system: wild oat (Avena fatua); test: Test B postemergence; conditions: 13 to 15 days
Method in brief: as §1

[24] = system: lambsquarters (Chenopodium album); test: Test B postemergence; conditions: 13 to 15 days
Method in brief: as §1

[25] = system: pigweed (Amaranthus retroflexus); test: Test B postemergence; conditions: 13 to 15 days
Method in brief: as §1

[26] = system: Nightshade; test: Test C preemergence; conditions: Rate 500 g/ha, visual evaluation after 12 to 14 days
[27] = Preemergence, Rate 500 g/ha, scale 0 to 100, 0 no effect, 100 complete control
[28] = preemergence, Rate 125 g/ha, scale of 0 to 100 where 0 is no effect and 100 is complete control, 13 to 15 days
[29] = Rate 125 g/ha, scale 0 (no effect) to 100 (complete control)
[30] = Rate 500 g/ha, scale 0 to 100, 0 is no effect, 100 is complete control

COc1cccc(N2CCC(n3ccc(C(C)(C)C)n3)C2=O)c1 (centres unmarked) [Compound 87]
40: Plant response rating, Pigweed [25, 30]
30: Plant response rating, Corn [4, 28] | Plant response rating, Barnyardgrass [21, 30]
70: Plant response rating, Rice [6, 28]
100: Plant response rating, Surinam grass [2, 27] | Plant response rating, Crabgrass [3, 27] | Plant response rating, Crabgrass [3, 28] | Plant response rating, Rice [6, 27] | Plant response rating, Foxtail, Giant [7, 27] | Plant response rating, Foxtail, Giant [7, 28] | Plant response rating, Barnyardgrass [9, 27] | Plant response rating, Barnyardgrass [9, 28] | Plant response rating, Lambsquarters [11, 27] | Plant response rating, Lambsquarters [11, 28] | Plant response rating, Pigweed [12, 27] | Plant response rating, Pigweed [12, 28]
80: Plant response rating, Surinam grass [2, 28]
0: Plant response rating, Morningglory [5, 27] | Plant response rating, Morningglory [5, 28] | Plant response rating, Cocklebur [8, 27] | Plant response rating, Cocklebur [8, 28] | Plant response rating, Velvetleaf [10, 27] | Plant response rating, Velvetleaf [10, 28] | Plant response rating, Surinam grass [13, 29] | Plant response rating, Surinam grass [13, 30] | Plant response rating, Crabgrass [14, 29] | Plant response rating, Crabgrass [14, 30] | Plant response rating, Blackgrass [15, 29] | Plant response rating, Blackgrass [15, 30] | Plant response rating, Wheat [16, 29] | Plant response rating, Wheat [16, 30] | Plant response rating, Corn [17, 29] | Plant response rating, Corn [17, 30] | Plant response rating, Morningglory [18, 29] | Plant response rating, Morningglory [18, 30] | Plant response rating, Foxtail, Giant [19, 29] | Plant response rating, Foxtail, Giant [19, 30] | Plant response rating, Cocklebur [20, 29] | Plant response rating, Cocklebur [20, 30] | Plant response rating, Barnyardgrass [21, 29] | Plant response rating, Velvetleaf [22, 29] | Plant response rating, Velvetleaf [22, 30] | Plant response rating, Wild Oat [23, 29] | Plant response rating, Wild Oat [23, 30] | Plant response rating, Lambsquarters [24, 29] | Plant response rating, Pigweed [25, 29]
90: Plant response rating (0 to 100), Nightshade [26]
60: Plant response rating, Corn [4, 27]
20: Plant response rating, Sunflower [1]
50: Plant response rating, Lambsquarters [24, 30]

CC(C)(C)c1ccn(C2CCN(c3cccc(I)c3)C2=O)n1 (centres unmarked) [Compound 88]
80: Plant response rating (0 to 100), Nightshade [26]
0: Plant response rating, Morningglory [5, 27] | Plant response rating, Morningglory [5, 28] | Plant response rating, Rice [6, 28] | Plant response rating, Cocklebur [8, 27] | Plant response rating, Cocklebur [8, 28] | Plant response rating, Velvetleaf [10, 27] | Plant response rating, Velvetleaf [10, 28] | Plant response rating, Surinam grass [13, 29] | Plant response rating, Surinam grass [13, 30] | Plant response rating, Crabgrass [14, 29] | Plant response rating, Crabgrass [14, 30] | Plant response rating, Blackgrass [15, 29] | Plant response rating, Blackgrass [15, 30] | Plant response rating, Wheat [16, 29] | Plant response rating, Corn [17, 29] | Plant response rating, Barnyardgrass [21, 29] | Plant response rating, Velvetleaf [22, 29] | Plant response rating, Wild Oat [23, 29] | Plant response rating, Wild Oat [23, 30]
60: Plant response rating, Foxtail, Giant [19, 30]
20: Plant response rating, Sunflower [1] | Plant response rating, Corn [4, 27] | Plant response rating, Corn [4, 28] | Plant response rating, Morningglory [18, 29] | Plant response rating, Foxtail, Giant [19, 29] | Plant response rating, Cocklebur [20, 29]
10: Plant response rating, Corn [17, 30]
100: Plant response rating, Surinam grass [2, 27] | Plant response rating, Crabgrass [3, 27] | Plant response rating, Crabgrass [3, 28] | Plant response rating, Rice [6, 27] | Plant response rating, Foxtail, Giant [7, 27] | Plant response rating, Foxtail, Giant [7, 28] | Plant response rating, Barnyardgrass [9, 27] | Plant response rating, Barnyardgrass [9, 28] | Plant response rating, Lambsquarters [11, 27] | Plant response rating, Lambsquarters [11, 28] | Plant response rating, Pigweed [12, 27] | Plant response rating, Pigweed [12, 28] | Plant response rating, Lambsquarters [24, 29] | Plant response rating, Lambsquarters [24, 30] | Plant response rating, Pigweed [25, 30]
30: Plant response rating, Wheat [16, 30] | Plant response rating, Cocklebur [20, 30]
70: Plant response rating, Surinam grass [2, 28] | Plant response rating, Morningglory [18, 30]
90: Plant response rating, Barnyardgrass [21, 30] | Plant response rating, Pigweed [25, 29]
40: Plant response rating, Velvetleaf [22, 30]

CCCC(C)c1ccn(C2OCN(c3cccc(C(F)(F)F)c3)C2=O)n1 (centres unmarked) [Compound 89]
70: Plant response rating, Foxtail, Giant [19, 30]
80: Plant response rating, Barnyardgrass [9, 28] | Plant response rating, Barnyardgrass [21, 30]
100: Plant response rating, Surinam grass [2, 27] | Plant response rating, Crabgrass [3, 27] | Plant response rating, Foxtail, Giant [7, 27] | Plant response rating, Barnyardgrass [9, 27] | Plant response rating, Lambsquarters [11, 27] | Plant response rating, Lambsquarters [11, 28] | Plant response rating, Pigweed [12, 27] | Plant response rating, Lambsquarters [24, 30]
10: Plant response rating, Rice [6, 27]
40: Plant response rating, Morningglory [18, 30]
0: Plant response rating, Sunflower [1] | Plant response rating, Corn [4, 27] | Plant response rating, Corn [4, 28] | Plant response rating, Morningglory [5, 27] | Plant response rating, Morningglory [5, 28] | Plant response rating, Rice [6, 28] | Plant response rating, Cocklebur [8, 27] | Plant response rating, Cocklebur [8, 28] | Plant response rating, Velvetleaf [10, 27] | Plant response rating, Velvetleaf [10, 28] | Plant response rating, Surinam grass [13, 29] | Plant response rating, Surinam grass [13, 30] | Plant response rating, Crabgrass [14, 29] | Plant response rating, Blackgrass [15, 29] | Plant response rating, Blackgrass [15, 30] | Plant response rating, Wheat [16, 30] | Plant response rating, Corn [17, 30] | Plant response rating, Cocklebur [20, 29] | Plant response rating, Barnyardgrass [21, 29] | Plant response rating, Velvetleaf [22, 30] | Plant response rating, Wild Oat [23, 30]
90: Plant response rating, Crabgrass [3, 28] | Plant response rating, Foxtail, Giant [7, 28] | Plant response rating, Pigweed [12, 28] | Plant response rating, Foxtail, Giant [19, 29] | Plant response rating, Pigweed [25, 30]
60: Plant response rating, Surinam grass [2, 28] | Plant response rating, Crabgrass [14, 30]
30: Plant response rating, Corn [17, 29] | Plant response rating, Cocklebur [20, 30] | Plant response rating (0 to 100), Nightshade [26]

CCCC(C)c1ccn(C2OCN(c3cccc(OC(F)(F)F)c3)C2=O)n1 (centres unmarked) [Compound 91]
80: Plant response rating, Surinam grass [2, 27] | Plant response rating, Morningglory [18, 30] | Plant response rating, Cocklebur [20, 30]
10: Plant response rating, Surinam grass [13, 29] | Plant response rating, Surinam grass [13, 30] | Plant response rating, Corn [17, 30] | Plant response rating (0 to 100), Nightshade [26]
50: Plant response rating, Barnyardgrass [21, 29]
30: Plant response rating, Corn [4, 27] | Plant response rating, Velvetleaf [22, 30]
90: Plant response rating, Foxtail, Giant [7, 28] | Plant response rating, Pigweed [12, 28] | Plant response rating, Crabgrass [14, 30] | Plant response rating, Barnyardgrass [21, 30] | Plant response rating, Pigweed [25, 30]
0: Plant response rating, Sunflower [1] | Plant response rating, Corn [4, 28] | Plant response rating, Morningglory [5, 27] | Plant response rating, Morningglory [5, 28] | Plant response rating, Rice [6, 27] | Plant response rating, Rice [6, 28] | Plant response rating, Cocklebur [8, 27] | Plant response rating, Cocklebur [8, 28] | Plant response rating, Velvetleaf [10, 27] | Plant response rating, Velvetleaf [10, 28] | Plant response rating, Blackgrass [15, 29] | Plant response rating, Blackgrass [15, 30] | Plant response rating, Wheat [16, 30] | Plant response rating, Corn [17, 29] | Plant response rating, Foxtail, Giant [19, 29] | Plant response rating, Wild Oat [23, 30]
100: Plant response rating, Crabgrass [3, 27] | Plant response rating, Crabgrass [3, 28] | Plant response rating, Foxtail, Giant [7, 27] | Plant response rating, Barnyardgrass [9, 27] | Plant response rating, Barnyardgrass [9, 28] | Plant response rating, Lambsquarters [11, 27] | Plant response rating, Lambsquarters [11, 28] | Plant response rating, Pigweed [12, 27] | Plant response rating, Lambsquarters [24, 30]
70: Plant response rating, Surinam grass [2, 28]
40: Plant response rating, Crabgrass [14, 29] | Plant response rating, Foxtail, Giant [19, 30]
20: Plant response rating, Cocklebur [20, 29]
